pIC50: −log10 of the molar value.
What was measured:
[1] = molecular target: T1, PI3Kδ (Homo sapiens, UniProt O00329); assay: PI3Kδ kinase assay (HTRF, PIP3 detection); format: biochemical; conditions: for pIC50: 10 dose IC50, 10 μM ATP; for PI3Kδ @ 0.1 μM (% Inh): 0.1 μM compound; for PI3Kδ @ 0.1 μM (% Inh) / PI3Kδ @ 1 μM (% Inh) / PI3Kδ @ 0.01 μM (% Inh): 10 μM ATP; for PI3Kδ @ 1 μM (% Inh): 1 μM compound; for PI3Kδ @ 0.01 μM (% Inh): 0.01 μM compound
T1 construct: purchased Reaction Biology Corporation
Outline: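 10-dose HTRF assay; kinase preincubated with compound 10 min at RT, then reacted with 10 μM PIP2 and 10 μM ATP for 30 min at 30 °C in HEPES pH 7.0 buffer. PIP3 product displaces biotin-PIP3 from the Eu/APC complex; signal converted to PIP3 via standard curve, IC50 by nonlinear regression.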

[2] = molecular target: T2, BTK (Homo sapiens, UniProt Q06187); assay: BTK kinase assay (HotSpot, 33P ATP); format: biochemical; conditions: for pIC50: 10 dose IC50, 10 μM ATP; for BTK @ 0.1 μM (% Inh): 0.1 μM compound; for BTK @ 0.1 μM (% Inh) / BTK @ 1 μM (% Inh) / BTK @ 0.01 μM (% Inh): 10 μM ATP; for BTK @ 1 μM (% Inh): 1 μM compound; for BTK @ 0.01 μM (% Inh): 0.01 μM compound
T2 construct: purchased Reaction Biology Corporation
Outline: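 In 20 mM Hepes (pH 7.5) with 10 mM MgCl2, 1 mM EGTA, 0.1 mM Na3VO4, 2 mM DTT, 0.02% Brij35, 0.02 mg/mL BSA and 1% DMSO, kinase and substrate were exposed to ten compound doses for 15–20 min.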

T1 sequence (O00329 whole entry): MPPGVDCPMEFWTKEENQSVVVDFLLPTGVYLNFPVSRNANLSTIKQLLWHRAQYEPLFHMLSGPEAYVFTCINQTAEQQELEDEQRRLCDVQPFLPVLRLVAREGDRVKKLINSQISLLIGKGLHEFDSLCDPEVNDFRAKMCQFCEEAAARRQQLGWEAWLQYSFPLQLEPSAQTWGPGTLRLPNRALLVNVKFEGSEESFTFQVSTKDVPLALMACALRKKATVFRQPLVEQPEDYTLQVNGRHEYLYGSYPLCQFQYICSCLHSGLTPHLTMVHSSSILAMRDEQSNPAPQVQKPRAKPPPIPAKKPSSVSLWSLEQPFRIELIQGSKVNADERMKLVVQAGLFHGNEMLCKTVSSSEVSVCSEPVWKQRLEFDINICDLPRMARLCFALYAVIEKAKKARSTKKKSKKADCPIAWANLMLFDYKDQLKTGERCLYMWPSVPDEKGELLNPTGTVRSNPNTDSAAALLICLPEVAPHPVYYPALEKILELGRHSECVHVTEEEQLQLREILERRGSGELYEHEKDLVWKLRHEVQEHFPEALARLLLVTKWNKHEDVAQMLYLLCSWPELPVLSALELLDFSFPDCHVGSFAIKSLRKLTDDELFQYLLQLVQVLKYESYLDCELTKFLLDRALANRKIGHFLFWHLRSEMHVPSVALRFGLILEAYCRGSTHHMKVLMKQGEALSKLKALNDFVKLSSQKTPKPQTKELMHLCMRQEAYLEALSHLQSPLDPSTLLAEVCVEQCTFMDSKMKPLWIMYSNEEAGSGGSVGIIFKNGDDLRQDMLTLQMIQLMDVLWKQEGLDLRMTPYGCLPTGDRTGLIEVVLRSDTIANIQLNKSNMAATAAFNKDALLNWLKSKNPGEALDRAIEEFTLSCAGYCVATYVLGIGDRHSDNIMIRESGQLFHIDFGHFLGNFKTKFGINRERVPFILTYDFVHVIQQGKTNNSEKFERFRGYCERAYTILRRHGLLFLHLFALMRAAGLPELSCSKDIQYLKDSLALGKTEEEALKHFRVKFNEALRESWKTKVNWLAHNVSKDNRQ
T1 sequence (P27986 whole entry partner): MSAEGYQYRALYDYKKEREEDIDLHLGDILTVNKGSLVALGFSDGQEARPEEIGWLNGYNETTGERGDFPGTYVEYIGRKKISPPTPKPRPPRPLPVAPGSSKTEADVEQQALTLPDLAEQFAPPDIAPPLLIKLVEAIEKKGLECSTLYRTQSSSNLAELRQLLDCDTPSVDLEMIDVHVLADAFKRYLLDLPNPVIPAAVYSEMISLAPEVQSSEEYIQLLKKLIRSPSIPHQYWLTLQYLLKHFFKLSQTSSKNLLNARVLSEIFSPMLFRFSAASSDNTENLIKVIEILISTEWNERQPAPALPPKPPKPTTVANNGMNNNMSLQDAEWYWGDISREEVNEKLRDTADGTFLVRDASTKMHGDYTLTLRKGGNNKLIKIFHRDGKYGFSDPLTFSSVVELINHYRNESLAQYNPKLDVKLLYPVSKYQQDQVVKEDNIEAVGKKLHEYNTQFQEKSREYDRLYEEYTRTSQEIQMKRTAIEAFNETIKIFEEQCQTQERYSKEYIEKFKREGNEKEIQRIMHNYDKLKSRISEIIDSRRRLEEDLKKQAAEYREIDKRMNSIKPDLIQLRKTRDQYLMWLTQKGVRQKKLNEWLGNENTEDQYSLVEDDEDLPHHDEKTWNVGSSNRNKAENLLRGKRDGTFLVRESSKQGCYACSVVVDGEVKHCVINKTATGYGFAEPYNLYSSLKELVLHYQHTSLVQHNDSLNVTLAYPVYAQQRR
T2 sequence (Q06187 whole entry): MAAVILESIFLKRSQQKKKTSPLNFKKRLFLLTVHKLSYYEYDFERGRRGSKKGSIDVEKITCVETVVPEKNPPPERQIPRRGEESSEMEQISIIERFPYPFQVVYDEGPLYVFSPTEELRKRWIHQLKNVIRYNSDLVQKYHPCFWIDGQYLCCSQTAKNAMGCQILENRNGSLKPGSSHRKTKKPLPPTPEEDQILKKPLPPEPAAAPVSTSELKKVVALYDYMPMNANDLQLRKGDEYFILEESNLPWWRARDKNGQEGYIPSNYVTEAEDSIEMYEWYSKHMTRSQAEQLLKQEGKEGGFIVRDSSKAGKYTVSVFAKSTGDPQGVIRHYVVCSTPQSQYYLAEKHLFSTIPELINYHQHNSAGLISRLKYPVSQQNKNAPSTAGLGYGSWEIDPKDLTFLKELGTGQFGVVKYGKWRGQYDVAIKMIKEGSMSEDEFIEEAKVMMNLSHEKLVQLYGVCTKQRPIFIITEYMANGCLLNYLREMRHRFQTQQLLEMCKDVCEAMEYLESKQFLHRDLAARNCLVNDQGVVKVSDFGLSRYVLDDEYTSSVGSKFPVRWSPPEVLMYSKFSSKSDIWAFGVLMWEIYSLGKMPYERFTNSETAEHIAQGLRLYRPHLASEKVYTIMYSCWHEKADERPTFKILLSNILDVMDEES

Structure (SMILES)	pIC50 [1]	pIC50 [2]	PI3Kδ @ 0.1 μM (% Inh) [1] [% Inh]	PI3Kδ @ 1 μM (% Inh) [1] [% Inh]	BTK @ 0.1 μM (% Inh) [2] [% Inh]	BTK @ 1 μM (% Inh) [2] [% Inh]	PI3Kδ @ 0.01 μM (% Inh) [1] [% Inh]	BTK @ 0.01 μM (% Inh) [2] [% Inh]
COc1cc(F)cc(-c2nn(C3CCc4ccccc43)c3ncnc(N)c23)c1 (stereo not shown) [compound 4, 1-(2,3-dihydro-1H-inden-1-yl)-3-(3-fluoro-5-methoxyphenyl)-1H-pyrazolo[3,4-d]pyrimidin-4-amine]	5.74	6.23	–	–	–	–	–	–
Nc1ncnc2c1c(-c1ccc(C(F)(F)F)c(OCc3ccccc3)c1)nn2C1Cc2ccccc2C1 [Compound No. 43, 3-[3-(benzyloxy)-4-(trifluoromethyl)phenyl]-1-(2,3-dihydro-1H-inden-2-yl)-1H-pyrazolo[3,4-d]pyrimidin-4-amine]	–	–	11.31	11.07	3.54	−0.8	–	–
COc1cc(-c2nn(C3Cc4ccccc4C3)c3ncnc(N)c23)cc(Cl)c1OC [Compound No. 80, 3-(3-chloro-4,5-dimethoxyphenyl)-1-(2,3-dihydro-1H-inden-2-yl)-1H-pyrazolo[3,4-d]pyrimidin-4-amine]	–	–	5.1	29.99	45.74	68.21	–	–
NC(=O)/C=C/c1nn(C2Cc3ccccc3C2)c2ncnc(N)c12 [Compound No. 58, (2E)-3-[4-amino-1-(2,3-dihydro-1H-inden-2-yl)-1H-pyrazolo[3,4-d]pyrimidin-3-yl]prop-2-enamide]	–	–	33.15	44.88	18.0	43.79	–	–
CCOc1cc(-c2nn(C3Cc4ccccc4C3)c3ncnc(N)c23)cc(Cl)c1OC(C)C [Compound No. 79, 3-[3-chloro-5-ethoxy-4-(propan-2-yloxy)phenyl]-1-(2,3-dihydro-1H-inden-2-yl)-1H-pyrazolo[3,4-d]pyrimidin-4-amine]	–	–	6.45	12.1	7.61	9.02	–	–
Nc1ncnc2c1c(-c1ccc3c(c1)OCCCO3)nn2C1Cc2ccccc2C1 [Compound No. 74, 1-(2,3-dihydro-1H-inden-2-yl)-3-(3,4-dihydro-2H-1,5-benzodioxepin-7-yl)-1H-pyrazolo[3,4-d]pyrimidin-4-amine]	–	–	10.99	65.15	10.82	33.05	–	–
Nc1ncnc2c1c(-c1ccnc3[nH]ccc13)nn2C1Cc2ccccc2C1 [Compound No. 70, 1-(2,3-dihydro-1H-inden-2-yl)-3-{1H-pyrrolo[2,3-b]pyridin-4-yl}-1H-pyrazolo[3,4-d]pyrimidin-4-amine]	–	–	9.29	56.41	12.11	36.56	–	–
Nc1ncnc2c1c(-c1ccc3cc[nH]c3c1)nn2C1CCCc2ccccc21 (stereo not shown) [compound 38, 3-(1H-indol-6-yl)-1-(1,2,3,4-tetrahydronaphthalen-1-yl)-1H-pyrazolo[3,4-d]pyrimidin-4-amine]	–	–	7.33	–	15.94	–	–	–
Nc1nccn2c(C3Cc4ccccc4C3)nc(-c3cc(O)c(F)c(F)c3)c12 [compound 140, 5-[8-amino-3-(2,3-dihydro-1H-inden-2-yl)imidazo[1,5-a]pyrazin-1-yl]-2,3-difluorophenol]	–	–	79.18	–	96.04	–	31.54	83.98
COc1ccc(-c2nn(C3Cc4ccccc4C3)c3ncnc(N)c23)c(OC)c1OC [Compound No. 83, 1-(2,3-dihydro-1H-inden-2-yl)-3-(2,3,4-trimethoxyphenyl)-1H-pyrazolo[3,4-d]pyrimidin-4-amine]	–	–	−5.17	13.54	10.79	18.4	–	–
COc1cc(-c2nn(C3Cc4ccccc4C3)c3ncnc(N)c23)ccc1C(F)(F)F [Compound No. 69, 1-(2,3-dihydro-1H-inden-2-yl)-3-[3-methoxy-4-(trifluoromethyl)phenyl]-1H-pyrazolo[3,4-d]pyrimidin-4-amine]	6.48	6.10	4.96	60.21	19.61	61.7	–	–
Nc1ncnc2c1c(N1CCOCC1)nn2C1Cc2ccccc2C1 [Compound No. 48, 1-(2,3-dihydro-1H-inden-2-yl)-3-(morpholin-4-yl)-1H-pyrazolo[3,4-d]pyrimidin-4-amine]	–	–	7.12	11.95	1.56	16.21	–	–
Nc1ccc2c(c1)CC(n1nc(-c3cc(O)c(F)c(F)c3)c3c(N)ncnc31)C2 (stereo not shown) [compound 139, 5-[4-amino-1-(5-amino-2,3-dihydro-1H-inden-2-yl)-1H-pyrazolo[3,4-d]pyrimidin-3-yl]-2,3-difluorophenol]	–	–	90.95	–	95.07	–	65.26	80.96

Other lines, results leading:

pIC50 [1]	pIC50 [2]	PI3Kδ @ 0.1 μM (% Inh) [1] [% Inh]	PI3Kδ @ 1 μM (% Inh) [1] [% Inh]	BTK @ 0.1 μM (% Inh) [2] [% Inh]	BTK @ 1 μM (% Inh) [2] [% Inh]	PI3Kδ @ 0.01 μM (% Inh) [1] [% Inh]	BTK @ 0.01 μM (% Inh) [2] [% Inh]	Structure (SMILES)
7.40	6.53	–	–	–	–	–	–	Nc1ncnc2c1c(-c1ccc(O)c(F)c1)nn2C1CCc2ccccc2C1 (stereo not shown) [compound 22, 4-(4-amino-1-(1,2,3,4-tetrahydronaphthalen-2-yl)-1H-pyrazolo[3,4-d]pyrimidin-3-yl)-2-fluorophenol]
6.81	6.91	40.07	79.26	33.82	76.93	–	–	Nc1ncnc2c1c(-c1ccc(Br)c(O)c1)nn2C1CCc2ccccc21 (stereo not shown) [36b, 5-[4-amino-1-(2,3-dihydro-1H-inden-1-yl)-1H-pyrazolo[3,4-d]pyrimidin-3-yl]-2-bromophenol]
–	–	10.3	–	5.45	–	–	–	Nc1ncnc2c1c(-c1ccc(O)nc1)nn2C1CCc2ccccc2C1 (stereo not shown) [compound 24, 5-(4-amino-1-(1,2,3,4-tetrahydronaphthalen-2-yl)-1H-pyrazolo[3,4-d]pyrimidin-3-yl)pyridin-2-ol]
–	–	56.42	–	43.28	–	–	–	Nc1ncnc2c1c(-c1ccc(Br)c(O)c1)nn2C1CCc2ccccc21 (stereo not shown) [compound 36, 5-[4-amino-1-(2,3-dihydro-1H-inden-1-yl)-1H-pyrazolo[3,4-d]pyrimidin-3-yl]-2-bromophenol]
–	–	5.54	–	−6.05	–	−2.71	−7.89	NCc1ccc(-c2nn(C3Cc4ccccc4C3)c3ncnc(N)c23)cc1 [compound 138, 3-[4-(aminomethyl)phenyl]-1-(2,3-dihydro-1H-inden-2-yl)-1H-pyrazolo[3,4-d]pyrimidin-4-amine]
4.98	5.68	15.60	48.96	14.00	50.29	–	–	Nc1ncnc2c1c(-c1ccc(CO)cc1)nn2C1Cc2ccccc2C1 [Compound No. 55, {4-[4-amino-1-(2,3-dihydro-1H-inden-2-yl)-1H-pyrazolo[3,4-d]pyrimidin-3-yl]phenyl}methanol]
–	–	17.93	5.79	14.08	19.76	–	–	CC(=O)Nc1cccc(-c2nn(C3Cc4ccccc4C3)c3ncnc(N)c23)c1 [Compound No. 59, N-{3-[4-amino-1-(2,3-dihydro-1H-inden-2-yl)-1H-pyrazolo[3,4-d]pyrimidin-3-yl]phenyl}acetamide]
6.99	6.11	–	–	–	–	–	–	COc1ccc(-c2nn(C3CCc4ccccc4C3)c3ncnc(N)c23)cc1F (single isomer, unassigned) [Compound No. 14a, 3-(3-fluoro-4-methoxyphenyl)-1-(1,2,3,4-tetrahydronaphthalen-2-yl)-1H-pyrazolo[3,4-d]pyrimidin-4-amine]
–	–	40.18	–	12.19	–	32.92	7.68	Nc1ccc(-c2nn(C3Cc4ccccc4C3)c3ncnc(N)c23)cn1 [Compound No. 96, 5-[4-amino-1-(2,3-dihydro-1H-inden-2-yl)-1H-pyrazolo[3,4-d]pyrimidin-3-yl]pyridin-2-amine]
–	–	15.27	–	14.0	–	–	–	NC(=O)c1ccc(-c2nn(C3CCc4ccccc4C3)c3ncnc(N)c23)cc1 (stereo not shown) [compound 28, 4-(4-amino-1-tetralin-2-yl-pyrazolo[3,4-d]pyrimidin-3-yl)benzamide]
6.98	6.72	–	–	–	–	–	–	Nc1ncnc2c1c(-c1ccc(O)cc1)nn2C1CCc2ccccc2C1 (racemic) [compound 21, 4-(4-amino-1-(1,2,3,4-tetrahydronaphthalen-2-yl)-1H-pyrazolo[3,4-d]pyrimidin-3-yl)phenol]
8.10	6.66	–	–	–	–	–	–	COc1ccc(-c2nn(C3CCc4ccccc4C3)c3ncnc(N)c23)cc1F (racemic) [Compound No. 14, 3-(3-fluoro-4-methoxyphenyl)-1-(1,2,3,4-tetrahydronaphthalen-2-yl)-1H-pyrazolo[3,4-d]pyrimidin-4-amine]
